Laboratory results: ChEMBL document CHEMBL1157920, “Inhibition of antigen-induced degranulation by aryl compounds isolated from the bark of Betula platyphylla in RBL-2H3 cells” (2010)

Columns and labels:
[1] = test system: RBL-2H3; test: Inhibition of anti-DNP-IgE-induced degranulation in rat RBL2H3 cells assessed as betahexosaminidase released at 10 uM after 20 mins by microplate reader assay; type: functional; settings: RBL-2H3, 20 min
[2] = test system: RBL-2H3; test: Inhibition of anti-DNP-IgE-induced degranulation in rat RBL2H3 cells assessed as betahexosaminidase released at 100 uM after 20 mins by microplate reader assay; type: functional; settings: RBL-2H3, 20 min

Row | SMILES | inhibition at 10 µM [1] | inhibition at 100 µM [2]
1 | C[C@@H](O)CCc1ccc(O)cc1 | 29.7% | 36.5%
2 | C[C@H](CCc1ccc(O)cc1)O[C@@H]1O[C@H](CO)[C@@H](O)[C@H](O)[C@H]1O | 25% | 42.3%
3 | C[C@H](CCc1ccc(O)cc1)O[C@H]1O[C@H](COC(=O)C[C@@](C)(O)CC(=O)O)[C@@H](O)[C@H](O)[C@H]1O | 26.6% | 20%
4 | OC[C@]1(O)CO[C@@H](OC[C@H]2O[C@@H](O[C@H](CCCCc3ccc(O)cc3)CCc3ccc(O)cc3)[C@H](O[C@H]3OC[C@@](O)(CO)[C@@H]3O)[C@@H](O)[C@@H]2O)[C@H]1O | 22.1% | 23.2%
5 | O=C(CCc1ccc(O)cc1)C[C@@H](CCc1ccc(O)cc1)O[C@@H]1O[C@H](CO[C@@H]2OC[C@](O)(CO)[C@H]2O)[C@@H](O)[C@H](O)[C@H]1O[C@H]1OC[C@@](O)(CO)[C@@H]1O | 11.8% | 23.4%
6 | Oc1ccc(CCCC[C@@H](O)CCc2ccc(O)cc2)cc1 | 19.2% | 31.5%
7 | OC[C@]1(O)CO[C@@H](OC[C@H]2O[C@@H](O[C@H](CCCCc3ccc(O)cc3)CCc3ccc(O)cc3)[C@H](O)[C@@H](O)[C@@H]2O)[C@H]1O [ACEROSIDEVIII] | 11.7% | 22.4%
8 | C[C@H](CCc1ccc(O)cc1)O[C@@H]1O[C@H](CO[C@@H]2OC[C@@](O)(CO)[C@@H]2O)[C@@H](O)[C@H](O)[C@H]1O [APIOSYLRHODODENDRIN] | 25.4% | 26.7%
9 | O=c1c(O)c(-c2ccc(O)c(O)c2)oc2cc(O)cc(O)c12 [QUERCETIN] | 32.9% | –
